These results are taken from US20150157783A1, “METHOD TO SELECTIVELY BIND AND EXTRACT PHOSPHATE” (priority 2013, published 2015).

Series [1] can be described thus: UV-Vis titration, 1:1 binding of dihydrogen phosphate (Bu4N+ salt) in aqueous DMSO. The conditions noted are these: for Binding constant (1:1) to H2PO4^−: 25% aqueous DMSO (v/v). The method, then:
(§1) Their interactions with anion salts were investigated in various aqueous dimethylsulfoxide (DMSO) mixtures.
(§2) Dilute non-aggregating solutions of a receptor S were titrated with a given anion X^− via a solution of its tetrabutylammonium salt and were monitored by UV-VIS spectrometery. UV absorption spectra (250-600 nm) were recorded three times for each solution and average values for each point were used; all of the spectra were background corrected by subtracting the absorption of the solvent. The wavelength with the maximum change in the concentration corrected absorption (Acor=A·C0/C, where C and C0 are the current and the initial receptor concentrations) was determined and then used for further analysis. Absorptions were plotted versus anion concentrations and the binding constants were determined by an iterative non-linear least squares curve fitting routine implemented in Excel using the equations below. Observed and calculated absorptions are given for each titration in the corresponding Tables and Figures.
(§3) K: binding constant for 1:1 complex formation
(§4) [S]:free receptor concentration
(§5) [S]0:total receptor concentration
(§6) [SX]:bound receptor concentration
(§7) [X]0:total anion concentration
(§8) A: absorption of the solution
(§9) A0:absorption of the initial solution (no anion added)
(§10) Amax:absorption of the solution if all the receptor was bound (infinite excess of anion at the initial receptor concentration)
(§11) In cases where there is a large excess of the anion, [X] about equals [X]0, and the plot of ΔAcor/[X] versus ΔAcor gives a straight line where the slope of the linear least squares fit of the data is the binding constant (K) and the intercept is K·ΔAmax:
(§12) with ΔAcor=(A−A0)·C0/C, where C and C0 are the current and the initial receptor concentrations; ΔAmax=Amax−A0.

The nature of series [2]: UV-Vis titration, 1:1 binding of acetate (Bu4N+ salt) in aqueous DMSO. The conditions noted are these: for Binding constant (1:1) to OAc^−: 25% aqueous DMSO (v/v). As to the method:
as §1, §2, §3, §4, §5, §6, §7, §8, §9, §10, §11, §12

Series [3] is described as follows: Solubility of receptor (qualitative).
A short description of series [4]: UV-Vis titration, 1:1 binding of chloride (Bu4N+ salt) in aqueous DMSO. To be noted: 25% aqueous DMSO (v/v). As to the method: as §1, §2, §3, §4, §5, §6, §7, §8
A0:absorption of the initial solution (no anion added) […]

Consider `O=[N+]([O-])c1ccc(NC(=S)Nc2ccccc2)cc1` [1-mono, 1-(4—Nitrophenyl)-3-phenylthiourea], for which the “Binding constant (1:1) to H2PO4^−” value in series [1] amounted to 12 M⁻¹. Further, the “Binding constant (1:1) to OAc^−” value in series [2] is 12 M⁻¹.

Turning to `FC(F)(F)c1cc(NC(=S)Nc2ccccc2-c2cc(-c3ccccc3NC(=S)Nc3cc(C(F)(F)F)cc(C(F)(F)F)c3)cc(-c3ccccc3NC(=S)Nc3cc(C(F)(F)F)cc(C(F)(F)F)c3)c2)cc(C(F)(F)F)c1` [2-tris, 1,3,5-tris[2-(3-(3,5-Trifluoromethylphenyl)thioureido)phenyl]benzene], the “Binding constant (1:1) to H2PO4^−” value in series [1] stood at 10000 M⁻¹. Also, in series [3], the solubility result is recorded as “more soluble”.

`O=[N+]([O-])c1ccc(NC(=S)Nc2ccccc2-c2cc(-c3ccccc3NC(=S)Nc3ccc([N+](=O)[O-])cc3)cc(-c3ccccc3NC(=S)Nc3ccc([N+](=O)[O-])cc3)c2)cc1` [1-tris, 1,3,5-tris[2-(3-(4—Nitrophenyl)thioureido)phenyl]benzene]: the “Binding constant K of 1:1 adduct with H2PO4^−” value in series [1] (0.5% DMSO-H2O mixture, 0-1 equivalents of anion) was above 5e+06 M⁻¹. Moreover, the “association constant relative to the statistical value (36 M^−1) expected for one-arm binding of H2PO4^−” value in series [1] (25% aqueous DMSO) is reported as “more than 100 fold”. For the same molecule, the “Binding constant (1:1) to H2PO4^−” value in series [1] was 4000 M⁻¹. Also, the “acetate binding strength relative to 1-mono” value in series [2] (25% aqueous DMSO) was “three times more strongly”. The “Binding constant (1:1) to OAc^−” value in series [2] is 35 M⁻¹. Further, the “Binding constant (1:1) to Cl^−” value in series [4] came out at 1 M⁻¹. The solubility entry in series [3] is on record as “low solubility”.

With `O=[N+]([O-])c1ccc(NC(=S)Nc2ccccc2-c2cccc(-c3ccccc3NC(=S)Nc3ccc([N+](=O)[O-])cc3)c2)cc1` [1-bis, 1,3-bis[2-(3-(4—Nitrophenyl)thioureido)phenyl]benzene], the “K1-bis/K1-mono for dihydrogen phosphate” value in series [1] (25% aqueous DMSO) is given as “about 2”. In series [1], the “Binding constant (1:1) to H2PO4^−” value is 28 M⁻¹.
